Columns and labels:
[1] = molecular target: EGF receptor tyrosine kinase (Homo sapiens, UniProt P00533); assay: Protein kinase/phosphatase panel: EGF receptor tyrosine kinase; type: biochemical; conditions: inhibitor 10 μM; 100 μM ATP
[2] = molecular target: CD45 tyrosine phosphatase (Homo sapiens, UniProt P08575); assay: Protein kinase/phosphatase panel: CD45 tyrosine phosphatase; type: biochemical; conditions: inhibitor 10 μM
[3] = molecular target: PKC-θ (Homo sapiens, UniProt Q04759); assay: Protein kinase/phosphatase panel: PKC-θ; type: biochemical; conditions: inhibitor 10 μM; 100 μM ATP
[4] = molecular target: PDK1 (Homo sapiens, UniProt O15530); assay: Protein kinase/phosphatase panel: PDK1; type: biochemical; conditions: inhibitor 10 μM; 100 μM ATP
[5] = molecular target: Lck (Homo sapiens, UniProt P06239); assay: Protein kinase/phosphatase panel: Lck; type: biochemical; conditions: inhibitor 10 μM; 100 μM ATP
[6] = molecular target: P70S6K (Homo sapiens, UniProt P23443); assay: Protein kinase/phosphatase panel: P70S6K; type: biochemical; conditions: inhibitor 10 μM; 100 μM ATP
[7] = molecular target: CDK2/cyclinA (Homo sapiens, UniProt P24941); assay: Protein kinase/phosphatase panel: CDK2/cyclinA; type: biochemical; conditions: inhibitor 10 μM; 100 μM ATP
[8] = molecular target: ZAP-70 (Homo sapiens, UniProt P43403); assay: Protein kinase/phosphatase panel: ZAP-70; type: biochemical; conditions: inhibitor 10 μM; 100 μM ATP
[9] = Plasma concentration of the compound after oral administration; type: in vivo, mice; conditions: when LTB4 was applied
Procedure: Animals received a single oral dose of either a compound in accordance with the invention (25 mg/kg for mice and 20 or 40 mg/kg for rats) or vehicle (PEG-400). Blood samples were subsequently drawn at indicated time points and plasma concentration of the compound determined after liquid-liquid extraction by LC/MS. The lower quantification limit was 50 ng/ml. Plasma samples from control animals (vehicle alone) were used as the blank control.

[10] = system: Akt phosphorylation in HUVECs; assay: Akt phosphorylation in TNFα-stimulated HUVECs (Western blot); type: cell-based, human; conditions: 2 μM
[11] = system: TNFα-stimulated HUVECs; assay: Neutrophil tethering to TNFα-stimulated HUVECs, parallel plate flow chamber; type: cell-based, human; conditions: for reduction of neutrophil tethering to HUVECs pre-incubated with inhibitor: 2 μM, vs vehicle
Procedure: First, the effect of inhibiting PI3Kδ in endothelial cells was examined. Human umbilical vein endothelial cells (HUVECs) (3-4 passages; Cambrex Inc., East Rutherford, N.J.) grown on fibronectin-coated glass cover slips were pretreated with an inhibitor in accordance with the invention (2 μM) or vehicle control for 1 hour prior to being stimulated with TNFα (5 ng/ml, 4 h). Stimulation with TNFα induces expression of E-selectin by the endothelial cells. Peripheral blood neutrophils from healthy volunteers were isolated from whole blood by dextran sedimentation followed by density separation over Ficoll-Hypaque and hypotonic lysis. Approval was obtained from the Washington University Institutional Review Board for these studies. Informed consent was provided according to the Declaration of Helsinki. […] In additional experiments where leukocytes were pre-treated with an inhibitor of the invention as described above, the HUVECS were pre-incubated with mAb CL3 (50 μg/ml, 15 min) to block E-selectin binding. […] Endothelial cells therefore recruit leukocytes at least in part through selectins.

[12] = system: neutrophils; assay: Neutrophil chemotaxis across bare filter insert (Transwell) to LTB4; type: cell-based, mouse
Procedure: Neutrophil chemotaxis experiments were conducted as described [Roth et al., J. Immunoi. Methods, 188:97-116 (1995)]. Briefly, purified human neutrophils were incubated with DMSO (0.3% v/v) or an inhibitor in accordance with the invention reconstituted in DMSO (0.3%) for 20 minutes at room temperature. Cells were added to bare filter inserts (Transwell™ 5 μm pore size; Corning Costar, Cambridge, Mass.), that were placed into wells containing chemoattractants or control medium of a Ultra low 24-well cluster plate, and incubated for 1 hour at 37° C. in a 5% CO2 humidified environment. The number of neutrophils that migrated into the bottom well was determined by FACScan (Becton Dickinson, San Jose, Calif.). Results were expressed as percent neutrophil migration relative to the control (medium without inhibitor).
A dose response curve was generated to determine the concentration of LTB4 necessary to support half-maximal migration across a bare filter insert. Maximal transmigration for neutrophils purified from mouse bone marrow occurred between 100 to 250 nM of LTB4. […] Tager et al., J Exp. Med., 192:439-46 (2000). Treatment of WT neutrophils with 2 μM inhibitor in accordance with the invention diminished migration in response to LTB4 (30 nM) by ˜30%, a value equivalent to that observed for PI3Kδ deficient cells.

[13] = molecular target: p38 MAPK (Homo sapiens, UniProt Q16539); conditions: inhibitor 10 μM; reported by Sadhu et al.; cited from earlier work
[14] = molecular target: cSrc (Homo sapiens, UniProt P12931); conditions: inhibitor 10 μM; reported by Sadhu et al.; cited from earlier work
[15] = system: CK1; conditions: inhibitor 10 μM; reported by Sadhu et al.; cited from earlier work
[16] = molecular target: PKCα (Homo sapiens, UniProt P17252); conditions: inhibitor 10 μM; reported by Sadhu et al.; cited from earlier work
[17] = molecular target: PKCβII (Homo sapiens, UniProt P05771); conditions: inhibitor 10 μM; reported by Sadhu et al.; cited from earlier work
[18] = system: neutrophils; conditions: absence of hemodynamic forces; Sadhu et al.; cited from earlier work

Sequence of EGF receptor tyrosine kinase (P00533 25-1210): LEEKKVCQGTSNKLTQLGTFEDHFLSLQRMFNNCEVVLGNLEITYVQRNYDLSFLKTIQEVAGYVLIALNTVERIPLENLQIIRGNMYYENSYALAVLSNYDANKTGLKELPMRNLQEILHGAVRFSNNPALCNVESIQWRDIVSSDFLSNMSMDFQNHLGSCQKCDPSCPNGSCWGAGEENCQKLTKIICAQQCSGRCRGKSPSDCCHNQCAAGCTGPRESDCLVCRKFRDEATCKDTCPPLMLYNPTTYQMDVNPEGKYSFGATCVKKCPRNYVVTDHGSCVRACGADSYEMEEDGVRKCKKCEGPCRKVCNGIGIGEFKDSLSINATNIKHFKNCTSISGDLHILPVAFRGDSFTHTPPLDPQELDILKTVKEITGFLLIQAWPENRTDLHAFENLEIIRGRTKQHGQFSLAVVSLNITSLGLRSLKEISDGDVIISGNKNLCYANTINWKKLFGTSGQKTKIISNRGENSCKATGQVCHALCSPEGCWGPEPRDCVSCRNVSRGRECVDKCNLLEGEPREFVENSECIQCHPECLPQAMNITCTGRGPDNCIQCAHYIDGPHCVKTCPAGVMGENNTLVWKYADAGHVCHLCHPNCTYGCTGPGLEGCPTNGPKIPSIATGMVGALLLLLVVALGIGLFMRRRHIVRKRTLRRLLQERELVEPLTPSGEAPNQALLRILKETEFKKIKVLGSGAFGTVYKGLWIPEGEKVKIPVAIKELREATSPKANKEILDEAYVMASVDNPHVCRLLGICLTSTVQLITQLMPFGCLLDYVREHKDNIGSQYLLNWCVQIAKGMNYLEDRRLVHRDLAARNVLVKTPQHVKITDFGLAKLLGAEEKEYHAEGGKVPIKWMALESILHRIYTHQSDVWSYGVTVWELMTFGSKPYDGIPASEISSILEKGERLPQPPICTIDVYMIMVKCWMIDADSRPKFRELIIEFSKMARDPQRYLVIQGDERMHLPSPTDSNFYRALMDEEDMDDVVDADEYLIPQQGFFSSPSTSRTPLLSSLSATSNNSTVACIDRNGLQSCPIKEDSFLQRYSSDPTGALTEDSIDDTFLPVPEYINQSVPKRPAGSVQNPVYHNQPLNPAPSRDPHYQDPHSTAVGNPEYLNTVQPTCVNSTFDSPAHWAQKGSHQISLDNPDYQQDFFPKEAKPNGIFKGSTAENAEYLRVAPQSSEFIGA
Sequence of PDK1 (O15530 whole entry): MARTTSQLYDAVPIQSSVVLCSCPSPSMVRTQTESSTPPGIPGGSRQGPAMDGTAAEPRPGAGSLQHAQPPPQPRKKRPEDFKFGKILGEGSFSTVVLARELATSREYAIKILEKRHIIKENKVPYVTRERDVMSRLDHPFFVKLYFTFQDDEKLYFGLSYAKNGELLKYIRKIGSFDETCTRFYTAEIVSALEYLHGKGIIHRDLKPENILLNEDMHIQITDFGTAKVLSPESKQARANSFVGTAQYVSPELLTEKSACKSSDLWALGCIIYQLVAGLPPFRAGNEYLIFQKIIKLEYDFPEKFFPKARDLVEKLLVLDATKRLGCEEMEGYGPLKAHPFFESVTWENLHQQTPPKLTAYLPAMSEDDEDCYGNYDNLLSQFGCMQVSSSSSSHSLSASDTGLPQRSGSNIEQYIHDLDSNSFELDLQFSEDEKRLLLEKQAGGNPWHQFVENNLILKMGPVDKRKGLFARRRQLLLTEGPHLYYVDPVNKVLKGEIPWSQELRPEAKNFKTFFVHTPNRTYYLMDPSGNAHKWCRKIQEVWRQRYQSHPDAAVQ
Sequence of cSrc (P12931 whole entry, species assumed): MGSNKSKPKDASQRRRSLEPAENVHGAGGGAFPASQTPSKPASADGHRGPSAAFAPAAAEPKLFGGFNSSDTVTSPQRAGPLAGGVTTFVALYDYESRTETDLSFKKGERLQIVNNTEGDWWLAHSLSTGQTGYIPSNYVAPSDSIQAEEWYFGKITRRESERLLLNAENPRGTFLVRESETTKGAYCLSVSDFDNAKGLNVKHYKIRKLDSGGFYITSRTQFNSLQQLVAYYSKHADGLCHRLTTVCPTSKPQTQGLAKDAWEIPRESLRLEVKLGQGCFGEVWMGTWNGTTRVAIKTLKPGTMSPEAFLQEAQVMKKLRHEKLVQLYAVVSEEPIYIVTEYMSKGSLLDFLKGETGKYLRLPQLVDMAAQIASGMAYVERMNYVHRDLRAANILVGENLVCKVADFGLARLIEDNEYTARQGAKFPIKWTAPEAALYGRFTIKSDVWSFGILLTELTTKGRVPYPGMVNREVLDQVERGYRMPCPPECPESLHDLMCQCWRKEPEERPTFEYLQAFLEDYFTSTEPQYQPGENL
Sequence of PKC-θ (Q04759 whole entry): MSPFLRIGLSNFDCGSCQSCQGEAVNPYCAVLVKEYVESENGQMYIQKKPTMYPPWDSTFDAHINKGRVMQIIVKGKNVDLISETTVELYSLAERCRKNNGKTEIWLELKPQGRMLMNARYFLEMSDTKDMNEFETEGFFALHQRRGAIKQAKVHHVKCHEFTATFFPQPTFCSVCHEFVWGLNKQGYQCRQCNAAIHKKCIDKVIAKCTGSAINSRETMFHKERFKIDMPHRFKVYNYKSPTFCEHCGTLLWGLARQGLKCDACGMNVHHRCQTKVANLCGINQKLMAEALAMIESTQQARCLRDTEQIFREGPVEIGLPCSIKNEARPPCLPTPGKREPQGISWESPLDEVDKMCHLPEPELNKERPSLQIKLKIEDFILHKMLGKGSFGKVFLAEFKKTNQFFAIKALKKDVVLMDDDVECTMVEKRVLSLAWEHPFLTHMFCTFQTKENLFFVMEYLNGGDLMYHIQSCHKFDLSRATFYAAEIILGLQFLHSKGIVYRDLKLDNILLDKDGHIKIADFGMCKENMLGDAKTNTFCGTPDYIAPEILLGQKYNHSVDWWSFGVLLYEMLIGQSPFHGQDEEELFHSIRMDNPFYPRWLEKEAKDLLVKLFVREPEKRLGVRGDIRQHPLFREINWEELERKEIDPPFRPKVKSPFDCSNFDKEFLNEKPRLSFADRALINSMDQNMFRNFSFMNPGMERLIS
Sequence of Lck (P06239 whole entry, species assumed): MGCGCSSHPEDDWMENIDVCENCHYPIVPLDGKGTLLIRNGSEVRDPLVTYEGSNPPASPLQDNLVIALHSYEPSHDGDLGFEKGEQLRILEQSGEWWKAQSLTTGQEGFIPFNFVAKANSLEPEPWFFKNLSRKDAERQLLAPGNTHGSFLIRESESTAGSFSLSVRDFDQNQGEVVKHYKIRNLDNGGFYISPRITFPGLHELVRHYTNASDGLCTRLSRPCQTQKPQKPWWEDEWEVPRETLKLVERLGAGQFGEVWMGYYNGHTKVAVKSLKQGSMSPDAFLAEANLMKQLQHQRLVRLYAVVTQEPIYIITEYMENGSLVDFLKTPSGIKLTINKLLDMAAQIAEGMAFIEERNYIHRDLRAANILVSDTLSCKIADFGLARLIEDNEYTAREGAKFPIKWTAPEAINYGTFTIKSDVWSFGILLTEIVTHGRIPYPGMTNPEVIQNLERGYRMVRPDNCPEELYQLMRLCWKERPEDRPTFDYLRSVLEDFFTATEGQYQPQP
Sequence of P70S6K (P23443 whole entry): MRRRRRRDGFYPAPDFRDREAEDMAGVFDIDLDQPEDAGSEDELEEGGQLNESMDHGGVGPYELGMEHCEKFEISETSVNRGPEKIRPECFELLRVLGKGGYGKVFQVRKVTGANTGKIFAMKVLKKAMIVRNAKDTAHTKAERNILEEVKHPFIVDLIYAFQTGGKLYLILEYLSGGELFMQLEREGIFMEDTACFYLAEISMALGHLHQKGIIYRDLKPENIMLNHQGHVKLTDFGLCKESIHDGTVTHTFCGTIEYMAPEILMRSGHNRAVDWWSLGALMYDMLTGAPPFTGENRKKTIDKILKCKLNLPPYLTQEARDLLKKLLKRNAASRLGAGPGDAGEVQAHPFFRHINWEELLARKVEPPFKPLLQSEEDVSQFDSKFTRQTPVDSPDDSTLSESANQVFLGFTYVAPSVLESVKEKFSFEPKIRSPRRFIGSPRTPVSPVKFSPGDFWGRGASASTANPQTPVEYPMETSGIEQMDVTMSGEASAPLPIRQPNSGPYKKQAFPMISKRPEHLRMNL
Sequence of PKCβII (P05771 1-673 isoform P05771-2): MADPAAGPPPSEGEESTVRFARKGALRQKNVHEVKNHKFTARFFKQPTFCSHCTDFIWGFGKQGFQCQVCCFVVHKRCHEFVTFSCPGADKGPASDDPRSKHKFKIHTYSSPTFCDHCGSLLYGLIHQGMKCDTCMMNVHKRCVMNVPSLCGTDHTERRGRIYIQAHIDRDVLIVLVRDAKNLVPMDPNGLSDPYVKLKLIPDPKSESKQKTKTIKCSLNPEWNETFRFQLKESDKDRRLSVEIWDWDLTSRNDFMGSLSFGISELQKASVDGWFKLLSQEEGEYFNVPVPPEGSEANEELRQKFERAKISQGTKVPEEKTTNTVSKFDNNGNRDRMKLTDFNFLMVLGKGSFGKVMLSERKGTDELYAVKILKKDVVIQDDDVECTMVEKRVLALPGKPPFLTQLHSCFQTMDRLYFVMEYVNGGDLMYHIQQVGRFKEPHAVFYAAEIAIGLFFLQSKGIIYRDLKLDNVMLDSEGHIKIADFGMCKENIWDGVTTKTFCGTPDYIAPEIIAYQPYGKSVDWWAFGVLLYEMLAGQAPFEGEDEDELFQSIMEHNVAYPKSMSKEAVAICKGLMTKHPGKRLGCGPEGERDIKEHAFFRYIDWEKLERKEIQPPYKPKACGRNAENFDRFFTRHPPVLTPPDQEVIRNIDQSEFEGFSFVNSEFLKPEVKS
Sequence of p38 MAPK (Q16539 whole entry): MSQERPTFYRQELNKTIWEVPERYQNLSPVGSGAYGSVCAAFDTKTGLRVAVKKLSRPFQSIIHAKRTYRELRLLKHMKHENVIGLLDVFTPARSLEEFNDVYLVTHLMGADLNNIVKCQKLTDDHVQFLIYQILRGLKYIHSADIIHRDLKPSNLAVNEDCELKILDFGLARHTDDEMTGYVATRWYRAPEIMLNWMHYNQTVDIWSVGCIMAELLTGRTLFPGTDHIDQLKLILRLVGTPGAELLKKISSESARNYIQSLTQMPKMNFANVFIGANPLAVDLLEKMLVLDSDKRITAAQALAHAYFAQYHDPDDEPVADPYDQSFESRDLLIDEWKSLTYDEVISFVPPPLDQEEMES

Compound: Cc1ccccc1-n1c(Cn2cnc3c(N)ncnc32)nc2cccc(C)c2c1=O
- Activity (% of control) ± SD [1]: 102 ± 5.5 % of control
- Activity (% of control) ± SD [2]: 104 ± 2.2 % of control
- Activity (% of control) ± SD [3]: 97 ± 5.5 % of control
- Activity (% of control) ± SD [4]: 91.5 ± 2.1 % of control
- Activity (% of control) ± SD [5]: 116.5 ± 9.2 % of control
- Activity (% of control) ± SD [6]: 98.5 ± 0.7 % of control
- Activity (% of control) ± SD [7]: 92.5 ± 2.12 % of control
- Activity (% of control) ± SD [8]: 97.5 ± 13.4 % of control
- inhibitor concentration (mean plasma) [9]: 12.8 ± 3.7 µM
- phosphorylation of Akt (TNFα-mediated signaling) [10]: reduction in phosphorylation of Akt
- reduction of neutrophil tethering to HUVECs pre-incubated with inhibitor ([11]; wall shear rate 100 s^−1): 28%
- reduction of neutrophil tethering to HUVECs pre-incubated with inhibitor ([11]; wall shear rate 300 s^−1): 40%
- neutrophil tethering after treatment of neutrophils (not HUVECs) with inhibitor ([11]; identical concentration (2 μM), HUVEC pre-treated with only TNFα): did not reduce neutrophil tethering
- diminished migration in response to LTB4 ([12]; 2 μM, LTB4 30 nM, WT neutrophils): ~30%
- chemotaxis of cells lacking PI3Kδ ([12]; identical concentration (2 μM), PI3Kδ deficient cells): no further effects on chemotaxis
- Activity (% of control) ± SD [13]: No inhibition*
- Activity (% of control) ± SD [14]: No inhibition*
- Activity (% of control) ± SD [15]: No inhibition*
- Activity (% of control) ± SD [16]: No inhibition*
- Activity (% of control) ± SD [17]: No inhibition*
- fMLP-induced chemotaxis on an ICAM-1 substrate in vitro [18]: diminished fMLP-induced chemotaxis

Source: patent US20080287469A1, “Phosphoinositide 3-Kinase Inhibitors for Inhibiting Leukocyte Accumulation” (priority 2005, published 2008)
